{"source": "ChEMBL document CHEMBL2040805", "about": "“Cyclotides from an extreme habitat: characterization of cyclic peptides from Viola abyssinica of the Ethiopian highlands” (J Nat Prod, 2011)", "data": [{"test_system": "U-937/GTB", "assay": "Cytotoxicity against human U937/GTB cells after 72 hrs by fluorometric microculture cytotoxicity assay", "format": "functional, cell-based", "units": {"IC50": "µM"}, "values": [{"smiles": "COc1cccc2c1C(=O)c1c(O)c3c(c(O)c1C2=O)C[C@@](O)(C(=O)CO)C[C@@H]3O[C@H]1C[C@H](N)[C@H](O)[C@H](C)O1", "note": "[DOXORUBICIN]", "IC50": 0.16}, {"smiles": "CC(C)C[C@@H]1NC(=O)CNC(=O)[C@H](CC(N)=O)NC(=O)[C@H](CCCNC(=N)N)NC(=O)[C@H]([C@@H](C)O)NC(=O)[C@@H]2CSSC[C@@H]3NC(=O)[C@H]([C@@H](C)O)NC(=O)CNC(=O)CNC(=O)[C@H](Cc4ccccc4)NC(=O)[C@@H]4CSSC[C@H](NC(=O)[C@H]([C@@H](C)O)NC(=O)[C@H](CSSC[C@H](NC(=O)[C@H](C(C)C)NC(=O)[C@@H]5CCCN5C1=O)C(=O)NCC(=O)N[C@@H](CCC(=O)O)C(=O)N[C@H]([C@@H](C)O)CN4)NC(=O)CNC(=O)[C@@H]1CCCN1C(=O)[C@H]([C@@H](C)O)NC(=O)[C@H](CC(N)=O)NC3=O)C(=O)N[C@@H](CC(=O)O)C(=O)N1CCC[C@H]1C(=O)N[C@@H](Cc1c[nH]c3ccccc13)C(=O)N1CCC[C@H]1C(=O)N[C@@H](C(C)C)C(=O)N2", "IC50": 2.6}, {"smiles": "CC[C@H](C)[C@@H]1NC(=O)[C@@H]2CCCN2C(=O)[C@H](Cc2c[nH]c3ccccc23)NC(=O)[C@H](CO)NC(=O)[C@@H]2CSSC[C@@H]3NC(=O)[C@H]([C@@H](C)O)NC(=O)[C@H](CCC(=O)O)NC(=O)CNC(=O)[C@@H]4CSSC[C@H](NC(=O)CNC(=O)[C@@H]5CCCN5C(=O)[C@H]([C@@H](C)O)NC(=O)[C@H](CC(N)=O)NC(=O)[C@H](CSSC[C@H](NC1=O)C(=O)N[C@@H]([C@@H](C)O)C(=O)N[C@@H](CCCNC(=N)N)C(=O)N[C@@H](CC(N)=O)C(=O)NCC(=O)N[C@@H](CC(C)C)C(=O)N1CCC[C@H]1C(=O)N[C@@H](C(C)C)C(=O)N4)NC(=O)[C@H]([C@@H](C)O)NC(=O)CNC(=O)CNC(=O)[C@H](C)NC3=O)C(=O)N[C@@H](CO)C(=O)N2", "IC50": 7.6}]}]}
